According to patent US11987564B2, “PTPRD inhibitors and uses thereof” (United States Government as represented by the Department …, priority 2021, dated 2024):
Where two headings read alike, the source gives them in different places.

Experiments:
[1] = biological target: recombinant PTPRD (Homo sapiens, UniProt P23468); assay: pNPP hydrolysis by recombinant PTPRD phosphatase
Protocol: (§2) Phosphatase assays: Data for each assay type (3 wells/experimental condition, read using a Spectromax plate reader) was plotted vs time, and results derived from the slopes of linear regions were reported from triplicate independent experiments.
(§3) For assays of compound ligands that were likely pseudo-irreversible, 18 min preincubations were also added. For work determining the effect of flavonoids on pNPP hydrolysis, a 96 well half-area plate was prepared by first filling each well to be tested with 18 μL of 50 μM pNPP and 25 uL of running buffer, and 2 μL of DMSO containing the desired concentration of flavonoid and/or peptide. PTPRD phosphatase was diluted 1:50 in a dilution buffer.

[2] = biological target: PTPRS (Homo sapiens, UniProt Q13332); assay: pNPP hydrolysis by recombinant PTPRS phosphatase; format: biochemical
Excerpt: (§1) Human […] ([…]-pY-[…]) phosphopeptide (Pierce/ThermoFisher) were synthesized.

[3] = biological target: T1, PTPRJ (Homo sapiens, UniProt Q12913); assay: pNPP hydrolysis by PTPRJ phosphatase; format: biochemical
T1 construct: purchased
T1 sequence (Q12913 36-1337): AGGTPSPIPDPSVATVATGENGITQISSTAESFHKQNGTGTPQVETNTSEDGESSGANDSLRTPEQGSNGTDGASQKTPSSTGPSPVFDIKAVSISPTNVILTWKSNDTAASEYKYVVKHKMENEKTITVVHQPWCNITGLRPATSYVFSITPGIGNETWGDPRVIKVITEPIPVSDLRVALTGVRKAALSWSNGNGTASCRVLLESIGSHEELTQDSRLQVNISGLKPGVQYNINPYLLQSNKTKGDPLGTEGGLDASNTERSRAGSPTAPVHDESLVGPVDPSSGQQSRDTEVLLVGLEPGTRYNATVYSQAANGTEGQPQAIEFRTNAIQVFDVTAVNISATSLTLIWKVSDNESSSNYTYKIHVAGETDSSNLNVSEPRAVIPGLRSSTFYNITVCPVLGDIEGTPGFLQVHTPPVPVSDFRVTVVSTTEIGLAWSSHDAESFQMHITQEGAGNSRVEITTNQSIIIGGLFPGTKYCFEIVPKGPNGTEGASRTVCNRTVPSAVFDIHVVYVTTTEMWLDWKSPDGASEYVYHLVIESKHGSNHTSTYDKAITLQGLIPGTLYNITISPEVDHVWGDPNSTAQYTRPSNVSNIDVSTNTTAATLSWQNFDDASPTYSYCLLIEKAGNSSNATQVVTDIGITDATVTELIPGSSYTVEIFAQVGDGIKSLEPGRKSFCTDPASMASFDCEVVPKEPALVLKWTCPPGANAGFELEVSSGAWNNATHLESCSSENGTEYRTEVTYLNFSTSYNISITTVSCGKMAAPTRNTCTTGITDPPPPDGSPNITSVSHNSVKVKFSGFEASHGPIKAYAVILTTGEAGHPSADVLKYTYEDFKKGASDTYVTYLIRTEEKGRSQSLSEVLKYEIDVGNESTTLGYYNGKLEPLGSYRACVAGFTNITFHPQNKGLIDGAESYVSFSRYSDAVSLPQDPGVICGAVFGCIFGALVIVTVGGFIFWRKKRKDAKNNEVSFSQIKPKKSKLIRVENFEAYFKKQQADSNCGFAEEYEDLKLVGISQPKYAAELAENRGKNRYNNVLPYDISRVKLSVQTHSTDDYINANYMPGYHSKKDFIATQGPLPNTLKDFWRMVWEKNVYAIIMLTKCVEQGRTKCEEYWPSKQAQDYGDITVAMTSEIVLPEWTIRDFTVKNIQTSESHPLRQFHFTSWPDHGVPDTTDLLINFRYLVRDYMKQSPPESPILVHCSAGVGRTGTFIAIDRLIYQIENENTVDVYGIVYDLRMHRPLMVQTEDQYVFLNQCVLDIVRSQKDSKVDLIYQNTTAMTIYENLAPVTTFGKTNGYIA
Excerpt: as §1

[4] = biological target: T2, PTPN1 (PTP1B) (Homo sapiens, UniProt P18031); assay: pNPP hydrolysis by PTPN1 (PTP1B) phosphatase; format: biochemical; settings: untitled table after Table 4; mean, SEM in wrapped line
T2 construct: purchased
T2 sequence (P18031 1-435): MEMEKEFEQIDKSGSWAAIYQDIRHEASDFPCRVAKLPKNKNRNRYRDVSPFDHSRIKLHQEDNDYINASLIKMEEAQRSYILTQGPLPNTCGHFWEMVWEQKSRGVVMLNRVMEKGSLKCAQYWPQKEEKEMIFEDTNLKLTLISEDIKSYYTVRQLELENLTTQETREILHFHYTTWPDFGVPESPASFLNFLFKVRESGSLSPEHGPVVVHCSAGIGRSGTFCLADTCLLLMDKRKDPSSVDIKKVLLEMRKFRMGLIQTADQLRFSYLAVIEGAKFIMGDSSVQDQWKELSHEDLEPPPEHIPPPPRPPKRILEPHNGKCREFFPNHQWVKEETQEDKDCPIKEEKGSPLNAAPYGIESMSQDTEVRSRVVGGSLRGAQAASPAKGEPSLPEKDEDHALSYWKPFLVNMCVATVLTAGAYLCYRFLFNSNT

[5] = biological target: PTPRF (Homo sapiens, UniProt P10586); assay: pNPP hydrolysis by recombinant PTPRF phosphatase
Chain of PTPRF (P10586 30-1907, species assumed): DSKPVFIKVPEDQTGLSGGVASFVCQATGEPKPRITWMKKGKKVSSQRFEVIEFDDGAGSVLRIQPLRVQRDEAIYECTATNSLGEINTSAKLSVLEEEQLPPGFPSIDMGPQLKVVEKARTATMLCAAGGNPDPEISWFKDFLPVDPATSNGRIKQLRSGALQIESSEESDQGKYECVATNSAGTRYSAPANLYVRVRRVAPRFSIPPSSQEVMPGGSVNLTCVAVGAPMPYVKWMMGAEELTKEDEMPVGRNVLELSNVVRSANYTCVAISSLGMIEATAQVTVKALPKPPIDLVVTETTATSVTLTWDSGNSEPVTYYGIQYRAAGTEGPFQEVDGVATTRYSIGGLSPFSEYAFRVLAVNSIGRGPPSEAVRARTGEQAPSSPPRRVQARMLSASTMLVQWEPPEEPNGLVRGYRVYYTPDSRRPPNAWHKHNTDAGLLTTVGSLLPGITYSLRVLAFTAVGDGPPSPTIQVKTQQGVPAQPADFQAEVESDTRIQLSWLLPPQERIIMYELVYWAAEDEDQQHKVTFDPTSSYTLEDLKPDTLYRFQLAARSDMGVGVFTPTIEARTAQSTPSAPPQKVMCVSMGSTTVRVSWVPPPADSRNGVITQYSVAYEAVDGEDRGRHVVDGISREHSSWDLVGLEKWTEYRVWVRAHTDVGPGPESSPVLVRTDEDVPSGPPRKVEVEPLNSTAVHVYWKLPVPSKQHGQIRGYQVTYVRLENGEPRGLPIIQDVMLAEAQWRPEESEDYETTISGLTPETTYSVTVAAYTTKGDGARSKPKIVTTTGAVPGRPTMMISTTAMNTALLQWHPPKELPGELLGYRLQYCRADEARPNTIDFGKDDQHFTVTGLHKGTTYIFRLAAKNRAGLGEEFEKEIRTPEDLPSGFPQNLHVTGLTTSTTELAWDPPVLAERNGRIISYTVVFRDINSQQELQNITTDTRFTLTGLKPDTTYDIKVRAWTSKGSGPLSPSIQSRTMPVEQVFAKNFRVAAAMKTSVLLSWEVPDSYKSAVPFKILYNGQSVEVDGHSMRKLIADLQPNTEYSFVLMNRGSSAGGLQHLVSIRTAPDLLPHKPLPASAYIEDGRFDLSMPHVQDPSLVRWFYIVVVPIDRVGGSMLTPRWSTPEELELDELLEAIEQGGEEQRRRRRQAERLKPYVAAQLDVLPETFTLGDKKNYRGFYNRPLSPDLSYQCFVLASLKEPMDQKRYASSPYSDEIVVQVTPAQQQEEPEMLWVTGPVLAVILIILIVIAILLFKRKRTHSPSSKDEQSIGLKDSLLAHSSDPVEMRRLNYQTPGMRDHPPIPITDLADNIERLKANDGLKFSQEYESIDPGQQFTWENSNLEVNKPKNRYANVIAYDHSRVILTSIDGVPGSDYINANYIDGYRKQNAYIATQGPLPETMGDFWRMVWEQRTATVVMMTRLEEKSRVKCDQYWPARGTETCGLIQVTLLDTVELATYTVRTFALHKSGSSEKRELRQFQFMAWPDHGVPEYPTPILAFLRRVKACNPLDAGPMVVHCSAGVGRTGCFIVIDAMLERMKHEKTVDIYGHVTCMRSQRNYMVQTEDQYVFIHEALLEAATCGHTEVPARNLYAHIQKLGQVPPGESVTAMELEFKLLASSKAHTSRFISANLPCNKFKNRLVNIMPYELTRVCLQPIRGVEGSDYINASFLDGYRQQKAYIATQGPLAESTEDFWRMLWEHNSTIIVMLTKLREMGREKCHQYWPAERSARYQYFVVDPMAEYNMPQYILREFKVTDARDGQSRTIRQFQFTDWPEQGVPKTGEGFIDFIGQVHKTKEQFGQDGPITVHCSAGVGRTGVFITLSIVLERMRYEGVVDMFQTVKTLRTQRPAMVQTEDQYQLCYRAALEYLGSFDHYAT
Protocol: as §2, §3

[6] = PTPRD IC50, Table 4, mean (SEM) of three independent experiments, * = instability, no valid triplicate
[7] = PTPRD IC50, untitled table after Table 4, mean, SEM in wrapped line, compounds with PTPRD IC50 <5 μM
[8] = Table 4, mean (SEM) of three independent experiments, * = instability, no valid triplicate
[9] = untitled table after Table 4, mean, SEM in wrapped line
[10] = PTPRF IC50, Table 4, mean (SEM) of three independent experiments, * = instability, no valid triplicate
[11] = PTPRF IC50, untitled table after Table 4, mean, SEM in wrapped line
[12] = read-out: PTPRD IC50, untitled table after Table 4, mean, SEM in wrapped line, compounds with PTPRD IC50 <5 μM

Chain of recombinant PTPRD (P23468 21-1912): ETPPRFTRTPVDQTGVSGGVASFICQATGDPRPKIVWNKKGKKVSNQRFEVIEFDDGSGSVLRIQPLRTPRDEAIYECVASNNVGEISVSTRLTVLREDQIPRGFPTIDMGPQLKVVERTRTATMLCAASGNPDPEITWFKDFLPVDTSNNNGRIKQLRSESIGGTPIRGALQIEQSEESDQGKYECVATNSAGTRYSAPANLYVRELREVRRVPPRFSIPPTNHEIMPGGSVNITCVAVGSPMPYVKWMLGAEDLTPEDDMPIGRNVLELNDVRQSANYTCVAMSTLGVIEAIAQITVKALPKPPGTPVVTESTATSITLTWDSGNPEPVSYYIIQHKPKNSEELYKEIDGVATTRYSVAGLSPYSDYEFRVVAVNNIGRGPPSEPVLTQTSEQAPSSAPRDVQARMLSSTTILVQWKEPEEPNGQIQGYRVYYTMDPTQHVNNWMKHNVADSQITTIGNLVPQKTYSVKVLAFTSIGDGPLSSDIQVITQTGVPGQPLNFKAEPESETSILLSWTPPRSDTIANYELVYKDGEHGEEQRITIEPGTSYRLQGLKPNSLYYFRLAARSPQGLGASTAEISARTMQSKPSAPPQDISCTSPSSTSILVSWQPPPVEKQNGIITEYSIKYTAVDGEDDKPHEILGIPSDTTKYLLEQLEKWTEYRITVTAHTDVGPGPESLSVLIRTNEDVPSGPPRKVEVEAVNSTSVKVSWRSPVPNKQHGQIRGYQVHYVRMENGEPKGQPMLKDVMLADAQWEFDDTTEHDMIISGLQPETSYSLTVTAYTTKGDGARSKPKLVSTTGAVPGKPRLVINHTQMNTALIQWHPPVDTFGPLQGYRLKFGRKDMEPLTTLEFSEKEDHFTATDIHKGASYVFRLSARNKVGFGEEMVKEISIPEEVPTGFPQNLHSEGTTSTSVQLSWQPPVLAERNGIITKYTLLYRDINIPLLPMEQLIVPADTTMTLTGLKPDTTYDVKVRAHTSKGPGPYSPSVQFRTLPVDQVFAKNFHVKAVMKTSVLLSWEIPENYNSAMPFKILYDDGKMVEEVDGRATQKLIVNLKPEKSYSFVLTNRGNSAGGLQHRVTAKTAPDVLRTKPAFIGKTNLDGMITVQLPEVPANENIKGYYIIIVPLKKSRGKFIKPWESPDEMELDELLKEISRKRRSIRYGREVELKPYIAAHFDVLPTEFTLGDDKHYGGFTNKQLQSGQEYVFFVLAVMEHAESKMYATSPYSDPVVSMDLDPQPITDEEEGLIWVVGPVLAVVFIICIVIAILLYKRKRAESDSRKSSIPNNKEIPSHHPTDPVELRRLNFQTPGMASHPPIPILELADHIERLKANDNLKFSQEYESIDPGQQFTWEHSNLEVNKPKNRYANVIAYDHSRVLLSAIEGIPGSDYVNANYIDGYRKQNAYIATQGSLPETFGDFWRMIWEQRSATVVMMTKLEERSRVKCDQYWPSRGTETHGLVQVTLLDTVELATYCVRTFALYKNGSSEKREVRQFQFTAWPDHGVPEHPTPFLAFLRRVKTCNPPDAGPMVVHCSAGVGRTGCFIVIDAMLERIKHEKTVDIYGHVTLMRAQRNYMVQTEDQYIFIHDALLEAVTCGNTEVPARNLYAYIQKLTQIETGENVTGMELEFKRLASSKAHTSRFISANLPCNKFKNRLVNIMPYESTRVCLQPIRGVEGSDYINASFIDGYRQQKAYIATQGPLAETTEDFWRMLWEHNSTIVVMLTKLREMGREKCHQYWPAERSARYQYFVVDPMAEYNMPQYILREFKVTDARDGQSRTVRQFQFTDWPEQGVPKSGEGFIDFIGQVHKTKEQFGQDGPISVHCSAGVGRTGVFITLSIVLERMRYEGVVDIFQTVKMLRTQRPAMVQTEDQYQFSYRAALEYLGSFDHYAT

COc1c(OCc2ccc(Oc3ccc(F)cc3)cc2)cc2c(c1C=O)CC(O)OC2=O (centres unmarked) [Compound 44, 7-((4-(4-Fluorophenoxy)benzyl)oxy)-3-hydroxy-6-methoxy-1-oxoisochromane-5-carbaldehyde]
IC50 [1, 6]: 2.49 µM
IC50 [1, 7]: 2.49 µM

COc1c(OCc2c(Cl)cc(Cl)cc2Cl)cc2c(c1C=O)CC(O)OC2=O (centres unmarked) [Compound 42]
IC50 [2, 8]: 2.15 µM
IC50 [2, 9]: 2.2 µM
IC50 [3, 8]: 23.6 µM
IC50 [3, 9]: 23.6 µM
IC50 [4]: 28.9 µM
IC50 [1, 6]: 2.47 µM
IC50 [1, 7]: 2.5 µM

COc1c(OCc2ccc(Br)cc2)cc2c(c1C=O)CC(O)OC2=O (centres unmarked) [Compound 39, 7-((4-Bromobenzyl)oxy)-3-hydroxy-6-methoxy-1-oxoisochromane-5-carbaldehyde]
IC50 [2, 8]: 5 µM
IC50 [2, 9]: 5 µM
IC50 [3, 8]: 29.9 µM
IC50 [3, 9]: 29.9 µM
IC50 [5, 10]: 3.82 µM
IC50 [5, 11]: 3.82 µM

COc1c(OCC=C(C)C)cc2c(c1C=O)CC(O)OC2=O (centres unmarked) [Compound 59, 3-Hydroxy-6-methoxy-7-(3-methyl-but-2-enyloxy)-1-oxo-isochroman-5-carbaldehyde]
IC50 [2, 8]: 1.8 µM
IC50 [2, 9]: 1.8 µM
IC50 [3, 8]: 17.8 µM
IC50 [3, 9]: 17.8 µM
IC50 [4]: > 100 µM
IC50 [1, 6]: 3.21 µM
IC50 [1, 7]: 3.21 µM
IC50 [5, 10]: 2.46 µM
IC50 [5, 11]: 2.46 µM

COc1c(OCC2CCCCC2)cc2c(c1C=O)CC(O)OC2=O (centres unmarked) [Compound 68, 7-Cyclohexylmethoxy-3-hydroxy-6-methoxy-1-oxo-isochroman-5-carbaldehyde]
IC50 [2, 8]: 1.06 µM
IC50 [2, 9]: 1.06 µM
IC50 [3, 9]: 0.56 µM
IC50 [4]: 101 µM
IC50 [5, 10]: 0.76 µM
IC50 [5, 11]: 0.76 µM

COc1c(OCc2ccccc2)cc2c(c1C=O)CC(O)OC2=O (centres unmarked) [Compound 27, 7-(Benzyloxy)-3-hydroxy-6-methoxy-1-oxoisochromane-5-carbaldehyde]
IC50 [2, 8]: 1.6 µM
IC50 [2, 9]: 1.6 µM
IC50 [3, 8]: 47.2 µM
IC50 [3, 9]: 47.2 µM
IC50 [4]: 171 µM
IC50 [1, 12]: 1.64 µM
IC50 [5, 10]: 3.62 µM
IC50 [5, 11]: 3.62 µM

COc1c(OCc2ccc3ccccc3c2)cc2c(c1C=O)CC(O)OC2=O (centres unmarked) [Compound 49, 3-Hydroxy-6-methoxy-7-(naphthalen-2-ylmethoxy)-1-oxoisochromane-5-carbaldehyde]
IC50 [2, 8]: 4.61 µM
IC50 [2, 9]: 4.61 µM
IC50 [3, 8]: 33.3 µM
IC50 [3, 9]: 33.3 µM
IC50 [4]: 221 µM
IC50 [5, 10]: 5.87 µM
IC50 [5, 11]: 5.87 µM

COc1c(OCc2ccc(C)s2)cc2c(c1C=O)CC(O)OC2=O (centres unmarked) [Compound 46, 3-Hydroxy-6-methoxy-7-((5-methylthiophen-2-yl)methoxy)-1-oxoisochromane-5-carbaldehyde]
IC50 [2, 8]: 1.4 µM
IC50 [2, 9]: 1.4 µM
IC50 [3, 8]: 19.8 µM
IC50 [3, 9]: 19.8 µM
IC50 [1, 6]: 0.92 µM
IC50 [1, 7]: 0.92 µM
IC50 [5, 10]: 3.5 µM
IC50 [5, 11]: 3.5 µM

COc1c(OCC2CCC2)cc2c(c1C=O)CC(O)OC2=O (centres unmarked) [Compound 65, 7-Cyclobutylmethoxy-3-hydroxy-6-methoxy-1-oxo-isochroman-5-carbaldehyde]
IC50 [2, 8]: 3.36 µM
IC50 [2, 9]: 2.85 µM
IC50 [3, 9]: 32.7 µM
IC50 [4]: 24.1 µM
IC50 [1, 7]: 2.76 µM
IC50 [5, 10]: 3.03 µM
IC50 [5, 11]: 4.52 µM

COc1c(OCCCC(F)(F)F)cc2c(c1C=O)CC(O)OC2=O (centres unmarked) [Compound 63, 3-Hydroxy-6-methoxy-1-oxo-7-(4,4,4-trifluorobutoxy)isochromane-5-carbaldehyde]
IC50 [3, 9]: 108 µM

COc1c(OCc2ccc(Oc3ccccc3)cc2)cc2c(c1C=O)CC(O)OC2=O (centres unmarked) [Compound 43, 3-Hydroxy-6-methoxy-1-oxo-7-((4-phenoxybenzyl)oxy)isochromane-5-carbaldehyde]
IC50 [2, 8]: 1.34 µM
IC50 [2, 9]: 1.34 µM
IC50 [3, 8]: 28.4 µM
IC50 [3, 9]: 28.4 µM
IC50 [4]: 16.7 µM
IC50 [1, 6]: 1.6 µM
IC50 [1, 7]: 1.6 µM
IC50 [5, 10]: 3.93 µM
IC50 [5, 11]: 3.93 µM

COc1c(OCc2ccc(C)cc2)cc2c(c1C=O)CC(O)OC2=O (centres unmarked) [Compound 29, 3-Hydroxy-6-methoxy-7-((4-methylbenzyl)oxy)-1-oxoisochromane-5-carbaldehyde]
IC50 [2, 8]: 3.58 µM
IC50 [2, 9]: 3.58 µM
IC50 [3, 8]: 37.7 µM
IC50 [3, 9]: 37.7 µM
IC50 [4]: 148 µM
IC50 [1, 6]: 3.8 µM
IC50 [1, 7]: 3.8 µM
IC50 [5, 10]: 6.57 µM
IC50 [5, 11]: 6.57 µM

COc1c(OCCCc2ccccc2)cc2c(c1C=O)CC(O)OC2=O (centres unmarked) [Compound 52, 3-Hydroxy-6-methoxy-1-oxo-7-(3-phenylpropoxy)isochromane-5-carbaldehyde]
IC50 [2, 8]: 0.93 µM
IC50 [2, 9]: 0.93 µM
IC50 [5, 10]: 4.41 µM
IC50 [5, 11]: 4.41 µM

CCCCOc1cc2c(c(C=O)c1OC)CC(O)OC2=O (centres unmarked) [Compound 1, reference compound]
IC50 [2, 8]: 1.27 µM
IC50 [2, 9]: 1.27 µM
IC50 [3, 8]: 27.4 µM
IC50 [3, 9]: 27.4 µM
IC50 [4]: 215 µM
IC50 ([1]; read-out: PTPRD IC50, Table 4, mean (SEM) of three independent experiments, * = instability, no valid triplicate): 2.27 µM
IC50 [1, 12]: 2.27 µM
IC50 [5, 10]: 3.95 µM
IC50 [5, 11]: 3.95 µM

COc1c(OCC2CCCCCC2)cc2c(c1C=O)CC(O)OC2=O (centres unmarked) [Compound 69]
IC50 [2, 8]: 0.77 µM
IC50 [2, 9]: 0.77 µM
IC50 [3, 8]: 9.81 µM
IC50 [3, 9]: 9.8 µM
IC50 [4]: 27.1 µM
IC50 [5, 10]: 1.16 µM
IC50 [5, 11]: 1.16 µM

COc1c(OCCCCc2ccc(Cl)cc2)cc2c(c1C=O)CC(O)OC2=O (centres unmarked) [Compound 53, 7-(4-(4-Chlorophenyl)butoxy)-3-hydroxy-6-methoxy-1-oxoisochromane-5-carbaldehyde]
IC50 [2, 8]: 3.09 µM
IC50 [2, 9]: 3.09 µM
IC50 [3, 8]: 28.9 µM
IC50 [3, 9]: 28.9 µM
IC50 [4]: 65.7 µM
IC50 [5, 10]: 5.67 µM
IC50 [5, 11]: 5.67 µM

COc1c(OCCc2ccccc2)cc2c(c1C=O)CC(O)OC2=O (centres unmarked) [Compound 50, 3-Hydroxy-6-methoxy-1-oxo-7-phenethoxyisochromane-5-carbaldehyde]
IC50 [2, 8]: 3.03 µM
IC50 [2, 9]: 3.03 µM
IC50 [3, 8]: 54.8 µM
IC50 [3, 9]: 54.8 µM
IC50 [4]: 219 µM
IC50 [1, 6]: 4.57 µM
IC50 [1, 7]: 4.57 µM

COc1c(OCc2ccc(Cl)cc2Cl)cc2c(c1C=O)CC(O)OC2=O (centres unmarked) [Compound 40, 7-((2,4-Dichlorobenzyl)oxy)-3-hydroxy-6-methoxy-1-oxoisochromane-5-carbaldehyde]
IC50 [2, 8]: 1.03 µM
IC50 [2, 9]: 1.03 µM
IC50 [3, 8]: 14.6 µM
IC50 [3, 9]: 14.6 µM
IC50 [4]: 76 µM
IC50 [5, 10]: 3.55 µM
IC50 [5, 11]: 3.55 µM

COc1c(OCC2CC2)cc2c(c1C=O)CC(O)OC2=O (centres unmarked) [Compound 64, 7-Cyclopropylmethoxy-3-hydroxy-6-methoxy-1-oxo-isochroman-5-carbaldehyde]
IC50 [1, 6]: 4.18 µM
IC50 [1, 7]: 4.18 µM
